Data on 22 compounds can be found in US8552205B2, “Derivatives of 6,7-dihydro-5H-imidazo[1,2-alpha]imidazole-3-carboxylic acid amides” (Boehringer Ingelheim International GmbH, priority 2007, dated 2013).

The target of assay [1] is T1, LFA-1 (CD18/CD11a) binding to ICAM-1 (Homo sapiens, UniProt P05107+P20701).
T1 construct: LFA-1 is immunopurified using the TS2/4 antibody from a 20 g pellet of human JY or SKW3 cells; endogenous in cells; sICAM-1 made in house, secreted from transfected CHO DUX cells
Briefly: Assay to determine inhibition of LFA-1 binding to ICAM-1. The note with it: immunopurified LFA-1 binding to plate-bound sICAM-1; read-out: LFA/ICAM1 Kd. The text has this: Assay to Determine Inhibition of LFA-1 Binding to ICAM-1
This assay protocol is designed to study the direct antagonism, by a test compound, of the interaction of ICAM-1 with the Leukointegrin CD18/CD11a (LFA-1).
LFA-1 is immunopurified using the TS2/4 antibody from a 20 g pellet of human JY or SKW3 cells, utilizing a protocol previously described (Dustin, M. J.; et al., J. Immunol. 1992, 148, 2654-2660). The LFA-1 is purified from SKW3 lysates by immunoaffinity chromatography on TS2/4 LFA-1 mAb Sepharose and eluted at pH 11.5 in the presence of 2 mM MgCl2 and 1% octylglucoside. After collection and neutralization of fractions from the TS2/4 column, samples are pooled and precleared with Protein G agarose.
A soluble form of ICAM-1 is constructed, expressed, purified and characterized as previously described (Marlin, S.; et al., Nature, 1990, 344, 70-72 and see Arruda, A.; et al., Antimicrob. Agents Chemother. 1992, 36, 1186-1192). Briefly, isoleucine 454 which is located at the putative boundary between domain 5 of the ectodomain and the transmembrane domain, is changed to a stop codon using standard oligonucleotide-directed mutagenesis. This construction yields a molecule identical with the first 453 amino acids of membrane bound ICAM-1. An expression vector is created with a hamster dihydrofolate reductase gene, a neomycin-resistance marker, and the coding region of the sICAM-1 construct described above, along with the promoter, splice signals, and polyadenylation signal of the SV40 early region. The recombinant plasmid is transfected into CHO DUX cells using standard calcium phosphate methods. Cells are passaged in selective media (G418) and colonies secreting sICAM-1 are amplified using methotrexate. sICAM-1 is purified from serum-free media using traditional non-affinity chromatographic techniques, including ion exchange and size exclusion chromatography.
LFA-1 binding to ICAM-1 is monitored by first incubating sICAM-1 at 40 μg/mL in Dulbecco's phosphate buffered saline with calcium and magnesium, additional 2 mM MgCl2 and 0.1 mM PMSF (Diluting Buffer) in a 96-well plate for 30 min at room temperature. Plates are then blocked by the addition of 2% (w/v) bovine serum albumin in Diluting Buffer for 37° C. for 1 h. Blocking solution is removed from wells, and test compounds are diluted and then added followed by the addition of approximately 25 ng of immunoaffinity purified LFA-1. The LFA-1 is incubated in the presence of test compound and ICAM-1 at 37° C. for 1 h. Wells are washed 3 times with Diluting Buffer. The bound LFA-1 is detected by the addition of a polyclonal antibody directed against a peptide corresponding to the CD18 cytoplasmic tail in a 1:100 dilution with Diluting Buffer and 1% BSA and allowed to incubate for 45 min at 37° C. Wells are washed 3 times with Diluting Buffer and the bound polyclonal antibody is detected by the addition of a 1:4000 dilution of horse radish peroxidase conjugated to goat immunoglobulin directed against rabbit immunoglobulin. This reagent is allowed to incubate for 20 min at 37° C., wells are washed as above and the substrate for the horse radish peroxidase is added to each well to develop a quantitative colorimetric signal proportional to the amount of LFA-1 bound to sICAM-1. Soluble ICAM-1 (60 μg/mL) is used as a positive control for inhibition of the LFA-1/ICAM-1 interaction. The lack of the addition of LFA-1 to the binding assay is used as a background control for all samples. A dose-response curve is obtained for all test compounds.

The test system of assay [2] is IL-2 production in human whole blood stimulated with staphylococcal enterotoxin B. It is filed as cell-based.

Each structure is given as a SMILES string.

T1 sequence (P20701 26-1170): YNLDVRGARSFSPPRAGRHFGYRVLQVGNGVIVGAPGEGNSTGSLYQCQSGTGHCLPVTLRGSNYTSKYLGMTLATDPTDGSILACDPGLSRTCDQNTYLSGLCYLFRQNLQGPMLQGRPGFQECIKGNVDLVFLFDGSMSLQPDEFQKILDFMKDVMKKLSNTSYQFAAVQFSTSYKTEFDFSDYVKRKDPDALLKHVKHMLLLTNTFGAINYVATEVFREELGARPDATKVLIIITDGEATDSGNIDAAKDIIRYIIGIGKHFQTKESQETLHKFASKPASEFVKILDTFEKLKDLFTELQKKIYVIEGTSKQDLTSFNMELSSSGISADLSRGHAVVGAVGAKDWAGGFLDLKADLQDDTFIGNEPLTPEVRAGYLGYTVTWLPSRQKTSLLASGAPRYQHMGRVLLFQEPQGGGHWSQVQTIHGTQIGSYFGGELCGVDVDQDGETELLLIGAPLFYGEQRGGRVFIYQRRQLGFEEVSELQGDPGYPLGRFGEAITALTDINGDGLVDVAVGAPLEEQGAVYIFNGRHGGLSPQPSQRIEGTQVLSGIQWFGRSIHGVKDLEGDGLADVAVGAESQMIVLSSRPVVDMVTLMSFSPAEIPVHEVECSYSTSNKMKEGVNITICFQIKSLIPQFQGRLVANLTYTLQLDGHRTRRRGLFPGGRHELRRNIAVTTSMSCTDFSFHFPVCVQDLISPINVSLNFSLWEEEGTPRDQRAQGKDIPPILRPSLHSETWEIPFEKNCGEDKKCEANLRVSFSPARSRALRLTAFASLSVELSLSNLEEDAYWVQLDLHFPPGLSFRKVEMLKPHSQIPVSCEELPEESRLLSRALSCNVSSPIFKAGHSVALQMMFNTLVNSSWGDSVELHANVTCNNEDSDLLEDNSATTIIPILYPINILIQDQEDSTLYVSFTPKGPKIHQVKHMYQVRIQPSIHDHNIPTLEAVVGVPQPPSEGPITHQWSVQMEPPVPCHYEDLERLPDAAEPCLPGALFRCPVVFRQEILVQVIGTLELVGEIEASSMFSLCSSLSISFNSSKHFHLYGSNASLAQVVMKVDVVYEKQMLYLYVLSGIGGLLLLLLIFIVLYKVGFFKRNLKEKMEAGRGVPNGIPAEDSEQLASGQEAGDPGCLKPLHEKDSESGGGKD
T1 sequence (P05107 23-769): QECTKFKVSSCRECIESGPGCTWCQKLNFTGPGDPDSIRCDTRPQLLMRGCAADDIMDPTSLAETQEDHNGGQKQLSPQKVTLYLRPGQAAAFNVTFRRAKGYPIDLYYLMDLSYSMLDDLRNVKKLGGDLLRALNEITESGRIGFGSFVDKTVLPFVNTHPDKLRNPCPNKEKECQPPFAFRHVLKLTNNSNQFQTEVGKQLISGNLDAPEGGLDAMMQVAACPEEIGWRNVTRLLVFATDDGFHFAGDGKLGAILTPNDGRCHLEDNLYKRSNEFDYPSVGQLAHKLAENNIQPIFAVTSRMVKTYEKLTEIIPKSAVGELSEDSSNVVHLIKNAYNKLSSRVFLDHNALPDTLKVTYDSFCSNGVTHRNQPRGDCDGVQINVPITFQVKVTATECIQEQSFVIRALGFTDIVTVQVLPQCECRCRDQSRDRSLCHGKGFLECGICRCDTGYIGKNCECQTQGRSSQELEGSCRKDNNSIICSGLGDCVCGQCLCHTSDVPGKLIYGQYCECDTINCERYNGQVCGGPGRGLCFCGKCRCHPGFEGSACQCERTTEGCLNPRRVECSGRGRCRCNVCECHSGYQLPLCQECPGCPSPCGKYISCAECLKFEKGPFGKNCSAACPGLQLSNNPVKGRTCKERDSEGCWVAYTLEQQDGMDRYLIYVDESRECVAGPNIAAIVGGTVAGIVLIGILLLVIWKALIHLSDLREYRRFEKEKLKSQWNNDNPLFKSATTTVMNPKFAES

In the case of `CC(=O)NC1CCCN(C(=O)C2(NC(=O)c3cnc4n3[C@](C)(Cc3ccc(C#N)cc3)C(=O)N4c3cc(Cl)cc(Cl)c3)CC2)C1` (stereo partly shown) [Compound 201], in assay [1], the Kd was found to be 34 nM. Turning to `C[C@H](NC(=O)c1cnc2n1[C@](C)(Cc1ccc(C#N)cc1)C(=O)N2c1cc(Cl)cc(Cl)c1)C(=O)NCCN1CCOCC1` [Compound 259], the Kd in assay [1] worked out at 120 nM. As for `C[C@@H](NC(=O)c1cnc2n1[C@](C)(Cc1ccc(C#N)cc1)C(=O)N2c1cc(Cl)cc(Cl)c1)C(=O)Nc1ccnn1C` [Compound 129], the Kd in assay [1] is 45 nM. As to `COC(=O)[C@H]1CC[C@@H](NC(=O)C2(NC(=O)c3cnc4n3[C@](C)(Cc3ccc(C#N)cc3)C(=O)N4c3cc(Cl)cc(Cl)c3)CC2)C1` [Compound 109], the Kd in assay [1] was 28 nM. The same measure, in the same setting: with `C[C@@]1(Cc2ccc(C#N)cc2)C(=O)N(c2cc(Cl)cc(Cl)c2)c2ncc(C(=O)NC3(C(=O)N4CCC(S(C)(=O)=O)C4)CC3)n21` (stereo partly shown) [Compound 185] the figure was 24 nM; with `C[C@@H](NC(=O)c1cnc2n1[C@](C)(Cc1ccc(C#N)cc1)C(=O)N2c1cc(Cl)cc(Cl)c1)C(=O)Nc1nccs1` [Compound 286], 100 nM. `C[C@@]1(Cc2ccc(C#N)cc2)C(=O)N(c2cc(Cl)cc(Cl)c2)c2ncc(C(=O)NC3(C(=O)NC4(c5nnc(C6CC6)[nH]5)CC4)CC3)n21` [BI00659245, (R)-5-(4-Cyano-benzyl)-7-(3,5-dichloro-phenyl)-5-methyl-6-oxo-6,7-dihydro-5H-imidazo[1,2-a]imidazole-3-carboxylic acid {1-[1-(5-cyclopropyl-4H-1,2,4-triazol-3-yl)-cyclopropylcarbamoyl]-cyclopropyl}-amide] yielded a WB in assay [2] of 12 ×. `C[C@H](NC(=O)c1cnc2n1[C@](C)(Cc1ccc(C#N)cc1)C(=O)N2c1cc(Cl)c(F)c(Cl)c1)C(=O)NC1(c2ccccn2)CC1` [Compound 55]: in assay [1], the Kd is 10 nM. `C[C@@]1(Cc2ccc(C#N)cc2)C(=O)N(c2cc(Cl)cc(Cl)c2)c2ncc(C(=O)NC3(C(=O)N4CC[C@@H](O)C4)CC3)n21` [Compound 160]: the Kd in assay [1] came out at 5.9 nM. On the same count and under the same terms, to `C[C@@]1(Cc2ccc(C#N)cc2)C(=O)N(c2cc(Cl)cc(Cl)c2)c2ncc(C(=O)NC3(C(=O)N[C@@H]4CC[C@H](C(N)=O)C4)CC3)n21` [Compound 105] belongs 24 nM. Still for that read-out and setting: with `C[C@@]1(Cc2ccc(C#N)cc2)C(=O)N(c2cc(Cl)c(F)c(Cl)c2)c2ncc(C(=O)NC3(C(=O)NC4(c5nnc[nH]5)CC4)CC3)n21` [Compound 62] the figure was 7 nM; with `C[C@H](NC(=O)c1cnc2n1[C@](C)(Cc1ccc(C#N)cc1)C(=O)N2c1cc(Cl)cc(Cl)c1)C(=O)N1CCC[C@@H](C(N)=O)C1` [Compound 13], 2.4 nM; with `C[C@H](NC(=O)c1cnc2n1[C@](C)(Cc1ccc(C#N)cc1)C(=O)N2c1cc(Cl)cc(Cl)c1)C(=O)N1CCC[C@@H]1CO` [Compound 215], 39 nM. In the case of `CC(=O)N[C@H]1CCN(C(=O)C2(NC(=O)c3cnc4n3[C@](C)(Cc3ccc(C#N)cc3)C(=O)N4c3cc(Cl)cc(Cl)c3)CC2)C1` [Compound 12], in assay [1], the Kd was 5.4 nM.

Regarding `C[C@@]1(Cc2ccc(C#N)cc2)C(=O)N(c2cc(Cl)cc(Cl)c2)c2ncc(C(=O)NC3(C(=O)NC4(C(N)=O)CC4)CC3)n21` [Compound 72], the Kd in assay [1] was determined as 8.4 nM.

As for `CCN(C(C)=O)C1CCN(C(=O)C2(NC(=O)c3cnc4n3[C@](C)(Cc3ccc(OC(F)(F)F)cc3)C(=O)N4c3cc(Cl)cc(Cl)c3)CC2)C1` (stereo partly shown) [Compound 187], the Kd in assay [1] is 22 nM. Regarding `C[C@H](NC(=O)c1cnc2n1[C@](C)(Cc1ccc(C#N)cc1)C(=O)N2c1cc(Cl)cc(Cl)c1)C(=O)N[C@H](C)c1ccccn1` [Compound 2], the Kd in assay [1] turned out to be 8.9 nM. Still for that read-out and setting: with `C[C@@H](NC(=O)c1cnc2n1[C@](C)(Cc1ccc(C#N)cc1)C(=O)N2c1cc(Cl)cc(Cl)c1)C(=O)NC1(C(=O)O)CC1` [Compound 107] the figure was 28 nM.

Regarding `C[C@H](NC(=O)c1cnc2n1[C@](C)(Cc1ccc(C#N)cc1)C(=O)N2c1cc(Cl)cc(Cl)c1)C(=O)NC1CCC[C@H]1C(N)=O` (stereo partly shown) [Compound 114], the Kd in assay [1] worked out at 32 nM. Still for that read-out and setting: with `C[C@@]1(Cc2ccc(C#N)cc2)C(=O)N(c2cc(Cl)cc(Cl)c2)c2ncc(C(=O)NC3(C(=O)N4CC[C@@H](c5noc(=O)[nH]5)C4)CC3)n21` [Compound 9] the figure was 4.6 nM; with `CC(=O)N1CCC(NC(=O)C2(NC(=O)c3cnc4n3[C@](C)(Cc3ccc(C#N)cc3)C(=O)N4c3cc(Cl)cc(Cl)c3)CC2)CC1` [Compound 143], 71 nM. Same read-out and setting: with `C[C@@]1(Cc2ccc(C#N)cc2)C(=O)N(c2cc(Cl)c(F)c(Cl)c2)c2ncc(C(=O)NC3(C(=O)NC4(c5nccs5)CC4)CC3)n21` [Compound 60] the figure was 13 nM.
